According to patent US20230201217A1 (priority 2019, published 2023):
Values joined by “and” are separate entries in the source; they are usually repeats but may differ in a detail not shown here. Equal values may be shown once.

Columns and labels:
male CD-1 mice = assay: Cardiovascular radiotelemetry in conscious CD-1 mice; assay type: in vivo, mouse
Text: The purpose of this study was to explore the physiological changes associated with mortality. Animals were implanted with a radiotelemetry transmitter in the peritoneal cavity with the catheter inserted in the femoral artery and the sensor tip positioned in the abdominal aorta. […] Within one hour of dosing, average heart rate (FIG. 14) decreased about 50%, and significant decreases in systolic (FIG. 15) and diastolic blood pressure (FIG. 16). In addition, body temperature generally dropped at each collection time point, reaching a maximum difference from baseline at 120 minutes post-dose (average change up to 6.5° C.). Following administration of the 200 mg/kg dose, body temperature continued to drop (up to 10.5° C.) until all mice died (˜12 hours post-dose). These changes in body temperature were considered test article-related and correlated to the observed changes in heart rate. Terminally, there was a further decrease in all of the parameters, with the rectal temperatures falling to as low as 22° C. before the mice died. Observed effects on behavior and activity included tremors, twitches, abnormal gait, lethargy, decreased motor activity, increased response to touch and startle, seizures, gasping and slow respirations, exophthalmia, and stupor.

rats = assay: Single-dose oral toxicity; assay type: in vivo, rat
Experimental: Single doses up to 300-400 mg/kg and 800 mg/kg appeared to be generally well tolerated in monkeys and rats, respectively (one monkey treated with 400 mg/kg died in the 2-week GLP study on Day 1 of dosing). […] In mice, mortality was consistently seen following single doses 150 mg/kg. Preliminary 5-day repeat-dose range-finding studies were conducted in mice, rats and monkeys. The definitive 14-day studies in mouse and monkey yielded generally similar results to those observed in the 5-day studies.

dogs = assay: Single-dose oral toxicity; assay type: in vivo, dog
[1] = tested on: human peripheral blood lymphocytes (HPBL); assay: In vitro chromosome aberration test; assay type: cell-based
Experimental: Based on precipitates observed in the range-finding assay, concentrations used during the definitive chromosome aberration assay were a) 7.5, 15, 25, 50, 100, and 150 μg/mL in the 3-hour treatments with and without metabolic activation, and b) 1.0, 15, 25, 30, 35, 40, 45, 50, 55, 60, and 75 μg/mL in the 22-hour treatment without metabolic activation. These cultures along with the vehicle and one concentration of positive control for each treatment condition were analyzed for aberrations. Structural chromosome aberrations were scored for each concentration from a total of 200 metaphase cells (when possible) or ≥30 aberrant cells. Numerical aberrations were evaluated in 400 metaphase cells per concentration.

[2] = Stability of oral dosing solution; assay type: physicochemical
Text: Most preferably, an oral dose of the composition is used. An oral dosing formulation was validated by a GLP study.

[3] = tested on: dopamine release in the nucleus accumbens shell; conditions: 40 mg/kg pretreatment, 19 hours beforehand; cited from earlier work
[4] = tested on: rats, cocaine seeking behavior; conditions: 40 mg/kg i.p.; cited from earlier work
[5] = tested on: 64 neurotransmitter-related binding sites; assay: In vitro radio-ligand receptor and enzyme assays (panel); conditions: 100 nM
Experimental: The binding potential of 18-MC with 64 neurotransmitter-related binding sites was evaluated (TABLE 2).

plasma protein [6] = assay: Plasma protein binding; assay type: in vitro ADME, Rat
Text: (§1) There is no information on the protein binding of any of the metabolites.

plasma protein [7] = assay: Plasma protein binding; assay type: in vitro ADME, Dog
Text: as §1

[8] = Toxicokinetics, 14-day study in cynomolgus monkeys; assay type: in vivo, cynomolgus monkey
Experimental: The animals received 400 mg/kg on Day 1 and thereafter 300 mg/kg/day. The relative concentrations of the metabolites and 18-MC were determined by the peak-heights by UPLC/MS/MS method. Major metabolites were identified as M5>>M2>>P2. Metabolite M4 was on the borderline to be considered a major metabolite. The parent 18-MC exposure was less than 3% of the total drug and metabolite exposure.
Assessments of neurobehavioral effects and general toxicity were based on mortality, functional observational battery (FOB) evaluations, clinical observations, body weight, and body temperature; ophthalmoscopic, electrocardiographic examinations; and anatomic and clinical pathology. The anatomical pathology evaluations included histopathology of a full list of tissues from all animals and a comprehensive evaluation of the central nervous system (including selected peripheral nerves) utilizing whole body perfusion and special stains. Bone marrow smears from all animals were evaluated microscopically. Complete differentials and myeloid-erythroid (ME) ratios were performed. Toxicokinetic assessment was conducted for the test article and metabolites.
Systemic exposure to […] was independent of sex. […] The following discussion is therefore based on data for males and females combined.

plasma protein [9] = assay: Plasma protein binding, all species tested; assay type: in vitro ADME
Experimental: In all the species tested in pre-clinical studies, 18-MC is rapidly absorbed following oral administration with Tmax occurring in less than 0.5 hours following oral administration. After oral administration, the elimination of 18-MC is multi-compartmental. In plasma, 18-MC is highly protein bound (92% to 98%). 18-MC is also rapidly and extensively metabolized, presumably by first pass metabolism. At least […] different metabolites have been detected both in vitro and in vivo, further described below (M1-M9, P1-P3). The major metabolites (those with exposure greater than 10% of the total drug related material) appear to change with the dose and duration of dosing. Major metabolites include M2, M4, M5, M8, M9 and P2 depending on the animal species tested, and the dose and duration of dosing.
as §1

CYP2A6 = CYP2A6 (Homo sapiens, UniProt P11509); conditions: recombinant enzyme
Sequence of CYP2A6 (P11509 whole entry): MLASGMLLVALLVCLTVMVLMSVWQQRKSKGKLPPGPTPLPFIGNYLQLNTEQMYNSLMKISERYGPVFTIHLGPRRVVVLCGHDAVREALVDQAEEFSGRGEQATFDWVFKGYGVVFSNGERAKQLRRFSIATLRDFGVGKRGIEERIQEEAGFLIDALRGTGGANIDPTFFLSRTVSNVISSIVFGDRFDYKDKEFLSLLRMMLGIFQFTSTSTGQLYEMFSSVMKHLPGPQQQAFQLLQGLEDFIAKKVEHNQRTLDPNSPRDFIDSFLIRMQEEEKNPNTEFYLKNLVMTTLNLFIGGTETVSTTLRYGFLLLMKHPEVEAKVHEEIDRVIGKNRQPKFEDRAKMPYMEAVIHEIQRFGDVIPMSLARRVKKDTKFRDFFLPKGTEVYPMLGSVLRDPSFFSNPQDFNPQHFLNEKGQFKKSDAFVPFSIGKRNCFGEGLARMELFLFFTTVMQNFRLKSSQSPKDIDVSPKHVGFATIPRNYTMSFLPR
Experimental: (§2) Control incubations were performed for each assay with appropriate positive inhibitory controls.

CYP2B6 = CYP2B6 (Homo sapiens, UniProt P20813); conditions: recombinant enzyme
Sequence of CYP2B6 (P20813 whole entry): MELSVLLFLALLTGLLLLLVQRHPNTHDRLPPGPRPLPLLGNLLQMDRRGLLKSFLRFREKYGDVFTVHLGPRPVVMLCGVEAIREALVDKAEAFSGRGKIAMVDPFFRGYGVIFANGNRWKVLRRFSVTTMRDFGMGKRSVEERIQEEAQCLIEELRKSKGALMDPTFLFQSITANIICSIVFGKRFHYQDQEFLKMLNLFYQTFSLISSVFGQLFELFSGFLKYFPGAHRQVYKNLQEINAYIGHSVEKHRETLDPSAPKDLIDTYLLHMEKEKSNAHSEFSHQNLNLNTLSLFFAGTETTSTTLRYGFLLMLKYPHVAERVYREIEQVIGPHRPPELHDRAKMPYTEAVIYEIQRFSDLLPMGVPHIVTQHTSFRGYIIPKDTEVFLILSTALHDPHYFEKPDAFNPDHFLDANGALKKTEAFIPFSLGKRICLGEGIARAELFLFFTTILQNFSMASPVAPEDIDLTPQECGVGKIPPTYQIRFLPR
Experimental: as §2

SMILES: COCCC1CC2CN3CCc4c([nH]c5ccccc45)C(C(=O)OC)(C2)C13.Cl (stereo not shown) [18-MC HCl, 18-Methoxycoronaridine hydrochloride]
- average change in body temperature from baseline (male CD-1 mice; 100 mg/kg, 120 minutes post-dose): up to 6.5 °C
- mortality (male CD-1 mice; after 100 mg/kg oral dose): Two of the 6 animals died
- mortality (male CD-1 mice; after the 200 mg/kg dose (8 hours after 100 mg/kg)): all of the other animals died
- rectal temperature, terminal (male CD-1 mice; before the mice died): ≥ 22 °C
- drop in body temperature (male CD-1 mice; following the 200 mg/kg dose): up to 10.5 °C
- decrease in average heart rate (male CD-1 mice; within one hour of dosing): about 50%
- single dose generally well tolerated (rats): ≤ 800 mg/kg
- dose at which emesis was seen (dogs): 100 mg/kg
- structural chromosome aberrations ([1]; with metabolic activation): positive
- structural chromosome aberrations ([1]; without metabolic activation): negative
- stability of dosing solution ([2]; after 3 freeze-thaw (20° C.) cycles): met the required stability criteria
- homogeneity, concentration acceptability, solubility and stability of dosing formulation ([2]; after 10 days of refrigerated storage): met the applicable ICH criteria
- acute dopamine response to cocaine [3]: little effect
- sensitized dopamine response to cocaine [3]: abolished the sensitized dopamine response
- reinstatement effect of cues associated with cocaine self-administration [4]: blocked the reinstatement effect

SMILES: COCC[C@H]1CC2CN3CCc4c([nH]c5ccccc45)[C@](C(=O)OC)(C2)[C@H]13 [18-MC, 18-methoxycoronaridine]
- binding activity [5]: no binding activity
- % Bound Mean ± SD (plasma protein [6]; 200 ng/mL): 92.9 ± 0.351%
- % Bound Mean ± SD (plasma protein [6]; 600 ng/mL): 94.9 ± 0.794%
- % Bound Mean ± SD (plasma protein [6]; 5,000 ng/mL): 90.2 ± 0.153%
- Average % Bound Mean ± SD (plasma protein [6]; average of 3 concentrations): 92.7 ± 2.36%
- % Bound Mean ± SD (plasma protein [7]; 200 ng/mL): 92.1 ± 1.78%
- % Bound Mean ± SD (plasma protein [7]; 600 ng/mL): 94.8 ± 1.42%
- % Bound Mean ± SD (plasma protein [7]; 5,000 ng/mL): 93.2 ± 0.153%
- Average % Bound Mean ± SD (plasma protein [7]; average of 3 concentrations): 93.4 ± 1.36%
- AUC ([8]; Day 14, 300 mg/kg 18-MC HCl): 1210 ng·h/mL
- Cmax ([8]; Day 14, 300 mg/kg 18-MC HCl): 144 ng/mL
- AUC(0-24) ([8]; Day 14, 400 mg/kg 1 day then 300 mg/kg/day, averaged across the sexes): 144 µg·h/mL
- time of median peak plasma concentration ([8]; all dose groups, Days 1 and 14): ≤ 1 h
- protein bound in plasma (plasma protein [9]): 95-98% and 92-98%
- IC50 (CYP2A6): > 100 µM
- IC50 (CYP2B6): > 100 µM
